Source: US20160011220A1, “Systems and Methods to Quantify Analytes in Keratinized Samples” (PURDUE PHARMA L.P., priority 2012, published 2016)

Legend:
[1] = Stability of hair levels among individuals on stable doses of opioids, visit 1 vs visit 2 (excluding PRN dose); format: in vivo, human; settings: hair level at visit 1 vs hair level at visit 2
Excerpt: The study includes 2 study visits approximately 60 days apart. The second visit allowable range is between 45 and 75 days after the first visit. Patients submit hair and urine samples at both study visits
The enrolled subjects are current, past or new users of prescribed opioid analgesic regimens in either (i) the past 30 days, (ii) the past 31 to 120 days or were not previously prescribed an opioid regimen. All opioid analgesic regimens are self-reported.
E. Assessment of the Stability of Hair Levels Among Individuals on Stable Doses of Opioids (Excluding PRN Dose)
Also shown in Table 1B and the graphs is data from a sub-population of tested subjects, which excluded patients where the start date of the regimen was within the 90 day window of the enrollment date.

[2] = Relationship between prescribed opioid dose and hair levels (excluding PRN dose); format: in vivo, human
[3] = excluding patients whose prescription started less than 90 days before enrollment (n = 361)

## COc1ccc2c3c1O[C@H]1C(=O)CC[C@H]4[C@@H](C2)N(C)CC[C@]314 [Hydrocodone, hydrocodone]
[1]; all interim sample (n = 411)
  R (correlation coefficient): 0.880
  R-Squared: 0.775
[1]; [3]
  R (correlation coefficient): 0.883
  R-Squared: 0.781

## CN1CC[C@]23c4c5ccc(O)c4O[C@H]2[C@@H](O)C=C[C@H]3[C@H]1C5 [Morphine, morphine]
[1]; all interim sample (n = 411)
  R (correlation coefficient): 0.789
  R-Squared: 0.623
[1]; [3]
  R (correlation coefficient): 0.974
  R-Squared: 0.949

## COc1ccc2c3c1O[C@H]1C(=O)CC[C@@]4(O)[C@@H](C2)N(C)CC[C@]314 [Oxycodone, oxycodone]
[2]
  total variation in the hair levels explained by the linear relationship between total daily dose and hair levels (coefficient of determination): approximately 55%
[1]; all interim sample (n = 411)
  R (correlation coefficient): 0.959
  R-Squared: 0.920
[1]; [3]
  R (correlation coefficient): 0.960
  R-Squared: 0.922
